Data published in article PMC9563435, “Comparison of Different Clinical Chemotherapeutical Agents’ Toxicity and Cell Response on Mesenchymal Stem Cells and Cancer Cells” (Cells, 2022).

What was measured:
Assay type in all cases: cell-based, human
[1] = tested on: Ad-MSC-GFP 3 cells; assay: Cytotoxicity / cell viability assay (PrestoBlue) on Ad-MSC-GFP 3; details: Ad-MSC-GFP 3 / Ad-MSC 3, 5 days
Protocol: (§1) Cells were seeded in a 96-well tissue culture plate in 100 µL of medium. Ad-MSC-GFP 1, iAd-MSC-GFP 1, Ad-MSC-GFP 2, Ad-MSC-GFP 3, BM-MSC, and HFF were seeded at 5 × 10^3/100 µL/well density and A431-mCh, MES-SA-mCh, and MCF-7-GFP at 4 × 10^3 cells/100 µL/well concentration in DMEM-F12 media. Different initial cell numbers were used due to different proliferation rates of different cell types. Cells were allowed to attach overnight at 37 °C and the day after were treated with the drugs using the indicated concentrations in 100 µL. Cell viability was measured by using PrestoBlue™ Cell Viability Reagent (A13232, Invitrogen, Waltham, MA, USA). To address metabolic differences between cancer cells and MSCs, the assay was optimized for each cell line, cells were incubated with 5 or 12.5% PrestoBlue™ Cell Viability Reagent diluted in PBS at 37 °C/5% CO2 for 1–1.5 h 5 days after the treatment. The fluorescence signal was measured by an EnSpire (Perkin Elmer, Waltham, MA, USA) fluorometer at 555 nm (excitation)/585 nm (emission) wavelength.
(§2) After the incubation period, the relative fluorescence data was measured. The data was normalized with the fluorescence of blank samples (cell culture media). […] In these cases, IC50 was calculated from the line connecting the measurement points. For repeated measurements, average and standard deviation was calculated based on the logarithm of the IC50 values.

[2] = tested on: Ad-MSC 3 cells; assay: Senescence β-galactosidase staining, Ad-MSC 3; details: 4 µM; 5 days treatment then 7 days drug-free
Protocol: At day 5, media was removed and replaced with 200 µL of completed DMEM-F12 for 7 days. The Senescence β-Galactosidase Staining Kit (9860S, Cell Signaling Technology, Danvers, MA, USA) was used to detect senescent cells. Cells were fixed with fixing solution, washed with PBS, stained with X-gal solution overnight at 37 °C without CO2, and coated with 70% glycerol.

[3] = tested on: Ad-MSC 3 cells; assay: ROS induction (DCFH-DA), Ad-MSC 3; details: 1 h, different concentrations incl. higher
Protocol: (§3) Ad-MSC 3 and A431 cells were seeded in a 96-well tissue culture plate and incubated for 24 h as described above. Cells were washed twice with HBSS and incubated in 100 µL of DCFH-DA dye (R252-10, Dojindo) according to the manufacturer’s instructions. Cells were incubated for 30 min at 37 °C and washed twice with HBSS. […] Supernatant was removed, and the cells were washed with HBSS before imaging with the JuLI^TM Stage Cell History Recorder (NanoEnTek).

[4] = tested on: Ad-MSC-GFP 3 cells; assay: Live cell imaging, confluency, Ad-MSC-GFP 3; details: 120 h live cell imaging
Protocol: (§4) JuLI™ Stage Cell History Recorder was used to monitor a five-day cytotoxicity assay on Ad-MSC-GFP 3 and A431-mCh cell lines. […] Images were taken every 105 min for 120 h at 10× objective magnification. Live cell microscopy studies were evaluated using the “Growth curve” function of the JuLI STAT image analysis software (v2.0.1.0).

[5] = tested on: A431-mCh cells; assay: Live cell imaging, confluency, A431-mCh; details: 120 h
Protocol: as §4

[6] = tested on: A431-mCh cells; assay: γ-H2AX staining of DNA double-stranded breaks, A431-mCh
Protocol: (§5) Ad-MSC-GFP 3 cells were seeded into glass-bottomed chamber slides (ibidi, Germany, Grafelfing, Germany) at 1 × 10^4/well and A431-mCh at 1.6 × 10^4/well density. […] Cells in all chambers were fixed with 4% PFA for 15 min and washed twice with PBS. Blocking solution (0.5% BSA-PBS, 0.1% TritonX-100, 5% goat serum, and 1% fish gelatin) was used for 1 h. γ-H2A.X primary antibody (MA1-2022, Invitrogen, United States) was diluted in blocking solution at 1:500 concentration and incubated overnight at 4 °C. Afterwards, the cells were washed with PBS twice and goat anti-mouse A633 secondary antibody (A21052, abcam, Cambridge, UK) was diluted at 1:250 concentration in blocking solution. Nuclei was stained with a Hoechst-33342 (23491-52-3, Dojindo, Kumamoto, Japan) at 1:1000 concentration.
(§6) To quantify DNA damage based on immunofluorescence against γ-H2AX, a semi-automated image analysis pipeline was set up using CellProfiler v4.1.3 [10]. First, images showing DAPI-stained nuclei were pre-processed by intensity normalization and Gaussian filtering (ϭ = 20 px) to suppress noise and remove artifacts caused by debris. Nuclei candidates were identified by threshold-based segmentation; false candidates were removed from the analysis manually. Using the remaining nuclei regions as masks, pixel intensities were measured on the γ-H2AX channel, thus, excluding non-nuclei signals.

[7] = tested on: Ad-MSC-GFP 3 cells; assay: γ-H2AX staining of DNA double-stranded breaks, Ad-MSC-GFP 3
Protocol: as §5, §6

[8] = tested on: Ad-MSC 3 cells; assay: Apoptosis assay (Annexin V / TO-PRO-3 flow cytometry), Ad-MSC 3
Protocol: Apoptosis detection was based on the Annexin-V molecule binding to phosphatidylserine membrane molecules. Two cell lines were used to study apoptosis: Ad-MSC 3 cells were plated in a 5 × 10^4 cells/well concentration, while 4 × 10^4/well A431-mCh were seeded into each well in a 12-well tissue culture plate. […] At day 5, cells were trypsinized and centrifuged, while the supernatant was also collected and combined with the detached cells to include all already dead cells. Cells were washed twice with 500 µL of 1% BSA-PBS (bovine serum albumin dissolved in PBS, A8022, Sigma-Aldrich, St. Louis, MO, USA) solution and centrifuged at 400× G for 4 min. Cells were resuspended in 100 µL of 1× Annexin Binding Buffer (422201, Biolegend, San Diego, CA, USA), and 3 µL of Annexin V-Pacific Blue (A35122, Biolegend, San Diego, CA, USA) and 1 µL of TO-PRO-3 (R37170, Invitrogen, Waltham, MA, USA) were added to each sample. After 15 min of incubation, labeled and non-labeled samples were diluted 5-fold with 1× Annexin Binding Buffer and analyzed by Attune™ NxT flow cytometer.

[9] = tested on: 6 MSCs and 3 cancer cell lines; assay: Cytotoxicity / cell viability assay (PrestoBlue), panel of MSCs and cancer cell lines; details: 5 days treatment, IC50 comparison
Protocol: as §1
as §2, with “media). A sigmoidal dose–response curve was fitted to the normalized measurement data and the logarithm of the concentration using the least square method. An inhibitory concentration of 50% (IC50 and log10) was interpolated from the fitted graph.” for “media).”
To compare the mean IC50 values of six mesenchymal stem cell lines (Group-1) and three cancer cell lines (Group-2), first an F-test was performed to check equal variances between the groups, then two-sample unpaired t-tests were performed to calculate significance using Microsoft® Excel® 2016 (16.0.4266.1001).

[10] = tested on: A431 cells; assay: ROS induction (DCFH-DA), A431; details: 1 h, different concentrations incl. higher
Protocol: as §3

[11] = 120 h, IC50 concentrations of A431 (2 µM cisplatin, 0.1 µM doxorubicin, 30 µM nutlin-3)

SMILES: N.N.[Cl][Pt][Cl] [cisplatin]
- IC50 [1]: 10 µM
- SA-β-Gal staining (senescence) [2]: slightly increased SA-ß-Gal staining
- ROS induction [3]: did not induce ROS
- concentration at which significant drops in confluency were seen, as multiple of Ad-MSC-GFP 3 IC50 [4]: 2 fold
- number of viable colonies in live cell imaging ([5]; IC50 of A431-mCh and 10-fold higher concentration): significantly reduced the number of viable colonies
- growth kinetics in live cell imaging ([5]; concentration 10-fold lower than A431-mCh IC50): did not alter growth kinetics
- effect on A431 cells in γ-H2AX experiment ([6]; 10 µM, 5 days): almost completely eradicating A431 cells
- DNA damage (γ-H2AX) [6, 11]: massive DNA damage
- number of double-stranded breaks (γ-H2AX) ([7]; 10 µM, 5 days): significantly increased the number of double-stranded breaks
- DNA double-stranded breaks (γ-H2AX) [7, 11]: no DNA break was detected
- apoptosis (in words) ([8]; 10 µM (IC50 level of Ad-MSC-GFP 3)): notable amounts of late apoptosic cells
- apoptosis compared to untreated controls (in words) ([8]; 120 h): virtually no apoptosis
- drug sensitivity of MSCs compared with cancer cells (in words) [9]: required significantly higher concentrations to kill MSCs than cancer cells
- ROS induction [10]: did not induce ROS
